Source: patent publication US11123398B2, “Chemotherapeutic combinations of cationic antimicrobial peptides and chemotherapeutics” (LYTIX BIOPHARMA AS, priority 2014, dated 2021)
Non-standard residues stand in square brackets, D forms with d. Residues, ends and D or L forms follow the SMILES beside them. No end group written: not given here. Bip = N[C@@H](Cc1ccc(-c2ccccc2)cc1)C(=O)O; Dip = N[C@H](C(=O)O)C(c1ccccc1)c1ccccc1

Tests used:
[1] = system: Raji cell line; type: cell-based, human; conditions: 4 h
Protocol: (§1) Tumor cells were plated in 96-well flat-bottom microtitration plates (Nunc, Dutscher, Brumath, France) and incubated at 37° C. for 24 hours before treatment in 190 μl of drug-free and FBS-free culture medium.
(§2) Tumor cells were incubated for 4 hours with 10 concentrations of compounds in ¼ dilution step with a top dose of 400 μM (range 4×10^−4 to […]), with 1% (final concentration) Triton X-100 as positive control and FBS-free culture medium as negative control. The cells (190 μl) were incubated in a 200 μl final volume of FBS-free culture medium containing test substances at 37° C. under 5% CO2.
(§3) Three independent experiments were performed, each concentration being issued from quadruplicate. Control cells were treated with vehicle alone. At the end of treatments, the cytotoxic activity was evaluated by a MTS assay (see § 3.3 below).
(§4) Like MTT, MTS is bioreduced by cells into a formazan product that is directly soluble in culture medium without processing, unlike MTT.
(§5) At the end of the cells treatment, 40 μl of a 0.22 μm filtered freshly combined solution of MTS (20 ml at 2 mg/ml, Ref G1111, Batch 235897, Exp March 2009, Promega, Charbonnières, France) and PMS (1 ml at 0.92 mg/ml, Ref P9625, Batch 065K0961, Sigma) in Dulbecco's Phosphate Buffered Saline (DPBS, Ref 17-513Q, Batch 6MB0152, Cambrex), were added in each well. Culture plates were incubated for 2 h at 37° C. Absorbency (OD) were measured at 490 nm in each well using VICTOR^3™ 1420 multilabeled counter (Wallac, PerkinElmer, Courtaboeuf, France).
(§6) 4.1. IC50 Data was Determined as in Example 1

[2] = system: Ramos cell line; type: cell-based, human; conditions: 4 h
Protocol: as §1, §2, §3, §4, §5, §6

[3] = system: MCF-7/mdr; assay: MTS cytotoxicity assay, MCF-7/mdr; type: cell-based, human; conditions: IC50 resistant / IC50 sensitive line; doxorubicin resistance
Protocol: (§7) Tumor cells were plated in 96-well flat-bottom microtitration plates (Nunc, Dutscher, Brumath, France) and incubated at 37° C. for 24 hours before treatment in 190 μl of drug-free culture medium supplemented or not with 10% FBS for adherent or suspension growing cell lines, respectively.
(§8) The adherent cell lines were washed once with 200 μl FBS-free culture medium before treatment. Tumor cells were incubated for 4 hours with 10 concentrations of compounds in ¼ dilution step with a top dose of 400 μM (range 4×10^−4 to 4×10^−10 M), with 1% (final concentration) Triton X-100 as positive control and FBS-free culture medium as negative control. The cells (190 μl) were incubated in a 200 μl final volume of FBS-free culture medium containing test substances at 37° C. under 5% CO2.
(§9) Three independent experiments were performed, each concentration being tested in quadruplicate. Control cells were treated with vehicle alone. At the end of treatments, the cytotoxic activity was evaluated by a MTS assay (see § 3.3.).
as §4, §5
(§10) IC50: drug concentration to obtain a 50% inhibition of cell proliferation.
(§11) The dose-response curves were plotted using XLFit 3 (IDBS, United Kingdom). The IC50 determination values were calculated using the XLFit 3 software from semi-log curves. Individual IC50 determination values as well as mean and SD values were generated.
(§12) Resistance index was calculated using the following formula: […]
(§13) Resistance index was calculated for each compound for each couple of sensitive and resistant cell lines. Individual resistance index was calculated when IC50 values of both sensitive and corresponding resistant cell lines were determined within same experiment. In addition, resistance index was also calculated ratio of mean IC50 values obtained during three independent experiments.

[4] = system: HL-60/ADR; assay: MTS cytotoxicity assay, HL-60/ADR; type: cell-based, human; conditions: IC50 resistant / IC50 sensitive line; doxorubicin resistance
Protocol: as §7, §8, §9, §4, §5, §10, §11, §12, §13

[5] = system: IGROV-1/CDDP; assay: MTS cytotoxicity assay, IGROV-1/CDDP; type: cell-based, human; conditions: IC50 resistant / IC50 sensitive line; cisplatin resistance
Protocol: as §7, §8, §9, §4, §5, §10, §11, §12, §13

[6] = system: CCRF-CEM/VLB; assay: MTS cytotoxicity assay, CCRF-CEM/VLB; type: cell-based, human; conditions: IC50 resistant / IC50 sensitive line
Protocol: as §7
The adherent cell lines were washed once with 200 μl FBS-free culture medium before treatment. Tumor cells were incubated for 4 hours with 10 concentrations of compounds in ¼ dilution step with a top dose of 400 μM (range 4×10^−4 to 4×10^−10 M), with 1% (final concentration) Triton X-100 as positive control and FBS-free culture medium as negative control. […]
Three independent experiments were performed, each concentration being tested in quadruplicate. […] At the end of treatments, the cytotoxic activity was evaluated by a MTS assay (see § 3.3.). […]
At the end of the cells treatment, 40 μl of a 0.22 μm filtered freshly combined solution of MTS (20 ml at 2 mg/ml, Ref G1111, Batch 235897, Exp March 2009, Promega, Charbonnières, France) and PMS (1 ml at 0.92 mg/ml, Ref P9625, Batch 065K0961, Sigma) in Dulbecco's Phosphate Buffered Saline (DPBS, Ref 17-513Q, Batch 6MB0152, Cambrex), were added in each well. […] Absorbency (OD) were measured at 490 nm in each well using VICTOR^3™ 1420 multilabeled counter (Wallac, PerkinElmer, Courtaboeuf, France). […]
as §12

[7] = system: U-87 MG cell line; type: cell-based, human; conditions: 4 h
Protocol: as §7, §8, §9, §4, §5, §10, §11

[8] = system: RPMI 8226 cell line; type: cell-based, human; conditions: 4 h
Protocol: as §7, §8, §9, §4, §5, §10, §11

[9] = system: panel of 37 human cancer cell lines; type: cell-based
Protocol: The adherent cell lines were washed once with 200 μl FBS-free culture medium before treatment. […] compounds in ¼ dilution step with a top dose of 400 μM (range 4×10^−4 to 4×10^−10 M), with 1% (final concentration) Triton X-100 as positive control and FBS-free culture medium as negative control. The cells (190 μl) were incubated in a 200 μl final volume of FBS-free culture medium containing test substances at 37° C. under 5% CO2.
as §9, §4, §5, §10, §11

[10] = system: panel of 10 lymphoma cell lines; type: cell-based, human; conditions: conclusion
Protocol: as §1
[…] compounds in ¼ dilution step with a top dose of 400 μM (range 4×10^−4 to […]), with 1% (final concentration) Triton X-100 as positive control and FBS-free culture medium as negative control. The cells (190 μl) were incubated in a 200 μl final volume of FBS-free culture medium containing test substances at 37° C. under 5% CO2.
as §3, §4, §5, §6

[11] = system: spleen cells; conditions: cited from earlier work
[12] = system: A20 lymphoma; assay: LTX-315 with metronomic CY in A20 lymphoma model; type: in vivo, Balb/c mice; conditions: metronomic CY, single i.p. 2 mg on day 4
Protocol: Tumor cells were harvested, washed in RPMI-1640 and injected intradermally (i.d.) into the right side of the abdomen in Balb/c mice (5×10^6 A20 cells per mouse/50 μl RPMI-1640). When animals obtained palpable tumors (20-30 mm^2) animals were injected i.p. with a single dose of CY (day 4) dissolved in saline (2.0 mg CY/500 μl saline). […] Tumor size was measured using an electronic caliper and expressed as the area of an ellipse [(maximum dimension/2)×(minimum dimension/2)×π]. Animals were then euthanized when the product of the perpendicular tumor dimensions reached 130 mm^2 or when tumor ulceration developed.

[13] = system: A375 cells; assay: Confocal microscopy with fluorescence-labeled peptide (internalization); type: cell-based, human; conditions: 3 μM and 1.5 μM, 30-60 min
Protocol: Subconfluential A375 cells were seeded at 8,000 cells/well as above, and transfected on the second day using the Lipofectamine LTX with Plus transfection reagents (Invitrogen) following the manufacturer's protocol. The mitochondria were labeled using the pDsRed2-Mito, and the nucleus was labeled using the GFP-Histon2B plasmid (Imaging Platform, University of Tromsø). A day after transfection, cells were washed twice with serum-free RPMI, and treated at different concentration and incubation periods with LTX-315 Pacific Blue or LTX-328 Pacific Blue. […] Control cells were treated with unlabeled LTX-315 and also with serum-free RPMI only. After incubation, cells were fixed with 4% paraformaldehyde in PBS, and the wells were covered with Prolong Gold antifade (Invitrogen). Cells were further analyzed by use of a Leica TCS SP5 confocal microscope, with a […] objective. Pacific Blue, GFP and Ds Red were excited using UV, with 488 and 561 lasers, and fluorescence channels were sequentially detected using the following band passes: UV: 420-480 nm (with attenuation), 488: 501-550 nm and 561: 576-676 nm.

NCCCC[C@H](NC(=O)[C@H](Cc1c[nH]c2ccccc12)NC(=O)[C@H](Cc1c[nH]c2ccccc12)NC(=O)[C@H](CCCCN)NC(=O)[C@H](CCCCN)NC(=O)[C@H](Cc1c[nH]c2ccccc12)NC(=O)[C@H](Cc1ccc(-c2ccccc2)cc1)NC(=O)[C@H](CCCCN)NC(=O)[C@@H](N)CCCCN)C(N)=O [LTX-313, K-K-Bip-W-K-K-W-W-K-NH2] (H-KK[Bip]WKKWWK-NH2; N-terminus assumed)
IC50 [1]: 16.1 ± 4.86 µM
IC50 [2]: 3.21 ± 2.81 µM
Resistance index (RI), MCF-7/mdr [3]: 1.24
Resistance index (RI), HL-60/ADR [4]: 1.16
Resistance index (RI), IGROV-1/CDDP [5]: 0.49
Resistance index (RI), CCRF-CEM/VLB [6]: 0.76
IC50 [7]: 18.5 ± 4.86 µM
IC50 [8]: 4.01 ± 0.39 µM
IC50 ([9]; 4 h): 9.6 ± 3.73 µM
IC50 range against 37 human cancer cell lines ([9]; conclusion): micromolar to ten micromolar range
IC50 range against 10 human lymphoma cell lines [10]: micromolar range

O=P1(N(CCCl)CCCl)NCCCO1 (stereo not shown) [CY, cyclophosphamide]
Relative number of CD19+ and Tregs ([11]; after CY administration): decreased sharply
Relative numbers of CD4+ and CD8+ T cells in spleens and LNs ([11]; after CY administration): increased
Drop in spleen cells at low-point ([11]; single i.p. injection of 2 mg CY, fourth day after administration): 50%
Duration of tumor growth inhibition [12]: 7 to 10 days

K-A-Q-Dip-Q-K-Q-A-W-NH2 (KAQ[Dip]QKQAW-NH2; N-terminus assumed; SMILES C[C@H](NC(=O)[C@H](CCC(N)=O)NC(=O)[C@H](CCCCN)NC(=O)[C@H](CCC(N)=O)NC(=O)[C@@H](NC(=O)[C@H](CCC(N)=O)NC(=O)[C@H](C)NC(=O)[C@@H](N)CCCCN)C(c1ccccc1)c1ccccc1)C(=O)N[C@@H](Cc1c[nH]c2ccccc12)C(N)=O) [LTX-328, reference compound]
Internalization of Pacific Blue-labeled peptide [13]: did not demonstrate any internalization at any concentration or incubation time tested
